Target: T1, laccase derived from Trametes villosa, TvL (Trametes villosa, UniProt Q99044)
T1 construct: purchased Novo Nordisk A/S
T1 sequence (Q99044 22-520): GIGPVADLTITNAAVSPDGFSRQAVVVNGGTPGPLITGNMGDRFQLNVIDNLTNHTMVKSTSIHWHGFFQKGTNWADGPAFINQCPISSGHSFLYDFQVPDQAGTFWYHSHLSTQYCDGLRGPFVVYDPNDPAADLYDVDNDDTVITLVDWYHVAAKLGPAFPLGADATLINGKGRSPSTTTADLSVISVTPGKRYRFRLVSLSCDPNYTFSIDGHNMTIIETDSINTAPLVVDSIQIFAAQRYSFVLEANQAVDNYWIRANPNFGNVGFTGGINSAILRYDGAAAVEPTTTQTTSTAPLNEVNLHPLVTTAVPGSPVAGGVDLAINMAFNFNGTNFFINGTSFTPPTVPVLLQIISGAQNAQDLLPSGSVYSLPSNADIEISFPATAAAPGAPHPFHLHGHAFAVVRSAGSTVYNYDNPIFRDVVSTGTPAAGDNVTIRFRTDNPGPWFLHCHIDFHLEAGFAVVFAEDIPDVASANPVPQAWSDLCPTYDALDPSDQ
Assay: Effect of laccase on tobacco constituents, UV/Vis spectra before and after treatment (Example 1)
Format: biochemical
Settings: 9 mM Na-acetate buffer pH 5.0; 4.8% Ethanol; 0.025 mg/ml of tobacco constituent; 0.016 mg/ml laccase; spectra 190-700 nm every 20 seconds for 5 minutes
Procedure: Tobacco constituents: Nicotine, Chlorogenic acid, Rutin and Scopoletin. Enzyme: Purified laccase derived from Trametes villosa, TvL. Apparatus: HP8452 UV/Vis diode array spectrophotometer, 1 cm quarts cuvette. Buffer: Sodium acetate (Merck)
10 mM acetate buffer was prepared from sodium acetate adjusted to pH 5.0 with sulphuric acid. Stock solution of 0.50 mg/ml in 96% ethanol was prepared of nicotine, chlorogenic acid, rutin, and scopoletin. A stock solution of 0.31 mg enzyme protein/ml of laccase in de-mineralised water was prepared. The HP diode array spectrophotometer was operated as per the manufacturer's instructions. A 1 cm quartz cuvette was used. As a blank was used 950µl buffer mixed with 50µl 96% ethanol. In a 1 cm quart cuvette was mixed 900µl 10 mM acetate buffer and 50µl of the stock solution of the compound in question. A spectrum of the "native" compound was recorded in the range 190-700 nm. 50µl of TvL stock solution was added and carefully mixed, and spectra in the range 190-700 nm were recorded every 20 seconds for 5 minutes.

## COc1cc2ccc(=O)oc2cc1O [S, 7-Hydroxy-6-methoxy-2H-1-benzopyran-2-one]
  spectral changes (peak position and peak relative height): significant spectral changes

Source: EP1094724B1, “USE OF A PHENOL OXIDISING ENZYME IN THE TREATMENT OF TOBACCO” (priority 1998, dated 2000)
